Source: patent US12319655B2, “RAF kinase inhibitors and methods of use thereof” (Deciphera Pharmaceuticals, LLC, priority 2021, dated 2025)

Key:
[1] = target: B-Raf (V600E) (SEQ. ID NO: 4) kinase (Homo sapiens (Human), UniProt P15056, V600E); test: Biochemical Assay for B-Raf (V600E) (2); details: Table J, BRAF V600E, biochemical assay (2); read-out: BRAF VE (2)
Description: Biochemical Assay for B-Raf (V600E) (2)
Activity of B-Raf (V600E) (SEQ. ID NO: 4) kinase was determined spectroscopically using a coupled pyruvate kinase/lactate dehydrogenase assay that continuously monitors the ATP hydrolysis-dependent oxidation of NADH (e.g., Schindler et al., Science, 2000, 289, 1938-1942). Assays were conducted in 384-well plates (25 μL final volume) using 0.5 nM B-Raf (deCode), 1.5 units pyruvate kinase, 2.1 units lactate dehydrogenase, 1 mM phosphoenol pyruvate, 0.7 mM NADH, 100 nM MEK (SignalChem), and 1 mM ATP in assay buffer (100 mM Tris, pH 7.5, 15 mM MgCl2, 0.5 mM DTT, 0.1% octyl-glucoside, 0.002% (w/v) BSA, and 0.002% Triton X-100). Inhibition of B-Raf (V600E) was measured by adding serial diluted test compound (final assay concentration of 1% DMSO). A decrease in absorption at 340 nm was monitored hourly for 4 h at 30° C. on a multi-mode microplate reader (BioTek). The reaction rate was calculated using the 3 to 4 h time frame. The reaction rate at each concentration of compound was converted to percent inhibition using controls (i.e., reaction with no test compound and reaction with a known inhibitor) and IC50 values were calculated by fitting a four-parameter sigmoidal curve to the data using Prism (GraphPad software).

[2] = target: B-Raf kinase (SEQ. ID NO: 2) (Homo sapiens (Human), UniProt P15056); test: Biochemical Assay for B-Raf (2); details: Table J, biochemical assay (2); read-out: BRAF (2)
Chain of B-Raf kinase (SEQ. ID NO: 2) (P15056 416-766): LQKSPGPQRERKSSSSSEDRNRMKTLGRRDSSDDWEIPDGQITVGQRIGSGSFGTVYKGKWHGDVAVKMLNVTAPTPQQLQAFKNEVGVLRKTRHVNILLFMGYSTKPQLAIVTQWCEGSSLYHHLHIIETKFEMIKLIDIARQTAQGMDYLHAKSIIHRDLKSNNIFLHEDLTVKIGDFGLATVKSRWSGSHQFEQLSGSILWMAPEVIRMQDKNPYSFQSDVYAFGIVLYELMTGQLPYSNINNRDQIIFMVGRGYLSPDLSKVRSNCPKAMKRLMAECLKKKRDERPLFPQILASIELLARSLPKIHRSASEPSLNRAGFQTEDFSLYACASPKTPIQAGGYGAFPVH
Description: Biochemical Assay for B-Raf (2)
(§1) Activity of B-Raf kinase (SEQ. ID NO: 2) was determined spectroscopically using a coupled pyruvate kinase/lactate dehydrogenase assay that continuously monitors the ATP hydrolysis-dependent oxidation of NADH (e.g., Schindler et al., Science, 2000, 289, 1938-1942). Assays were conducted in 384-well plates (25 μL final volume) using 2 nM B-Raf (Sigma), 1.5 units pyruvate kinase, 2.1 units lactate dehydrogenase, 1 mM phosphoenol pyruvate, 0.7 mM NADH, 50 nM MEK (SignalChem), and 1 mM ATP in assay buffer (100 mM Tris, pH 7.5, 15 mM MgCl2, 0.5 mM DTT, 0.1% octyl-glucoside, 0.002% (w/v) BSA, and 0.002% Triton X-100). Inhibition of B-Raf was measured by adding serial diluted test compound (final assay concentration of 1% DMSO). A decrease in absorption at 340 nm was monitored hourly for 4 h at 30° C. on a multi-mode microplate reader (BioTek). The reaction rate was calculated using the 2 to 3 h time frame. The reaction rate at each concentration of compound was converted to percent inhibition using controls (i.e., reaction with no test compound and reaction with a known inhibitor) and IC50 values were calculated by fitting a four-parameter sigmoidal curve to the data using Prism (GraphPad software).

[3] = target: A-Raf kinase (SEQ. ID No: 1) (Homo sapiens (Human), UniProt P10398, Y301D/Y302D); test: Biochemical Assay for A-Raf (2); details: Table J, biochemical assay (2); read-out: ARAF (2)
Chain of A-Raf kinase (SEQ. ID No: 1) (P10398 other isoform, or with tags, fused parts or gaps Y301D (already in the parent)/Y302D (already in the parent)): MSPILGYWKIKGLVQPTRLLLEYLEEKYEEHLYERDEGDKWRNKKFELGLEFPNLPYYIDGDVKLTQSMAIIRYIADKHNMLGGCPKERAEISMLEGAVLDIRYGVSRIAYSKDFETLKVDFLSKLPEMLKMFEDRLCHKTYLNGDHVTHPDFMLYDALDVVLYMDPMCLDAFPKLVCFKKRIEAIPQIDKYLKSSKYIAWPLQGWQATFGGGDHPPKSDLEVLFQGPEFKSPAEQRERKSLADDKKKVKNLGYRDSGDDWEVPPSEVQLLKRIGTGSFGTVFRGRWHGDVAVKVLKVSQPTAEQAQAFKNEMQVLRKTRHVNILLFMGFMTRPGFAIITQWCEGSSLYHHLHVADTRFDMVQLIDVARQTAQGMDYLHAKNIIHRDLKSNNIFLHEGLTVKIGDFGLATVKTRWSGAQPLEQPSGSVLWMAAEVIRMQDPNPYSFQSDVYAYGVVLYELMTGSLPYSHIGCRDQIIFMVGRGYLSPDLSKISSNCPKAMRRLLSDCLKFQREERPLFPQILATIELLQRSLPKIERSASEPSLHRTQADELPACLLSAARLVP
Description: Biochemical Assay for A-Raf (2)
Activity of A-Raf kinase (SEQ. ID No: 1) was determined spectroscopically using a coupled pyruvate kinase/lactate dehydrogenase assay that continuously monitors the ATP hydrolysis-dependent oxidation of NADH (e.g., Schindler et al., Science, 2000, 289, 1938-1942). Assays were conducted in 384-well plates (25 μL final volume) using 20 nM A-Raf (Eurofins), 1.5 units pyruvate kinase, 2.1 units lactate dehydrogenase, 1 mM phosphoenol pyruvate, 0.7 mM NADH, 100 nM MEK (SignalChem), and 1 mM ATP in assay buffer (100 mM Tris, pH 7.5, 15 mM MgCl2, 0.5 mM DTT, 0.1% octyl-glucoside, 0.002% (w/v) BSA, and 0.002% Triton X-100). Inhibition of A-Raf was measured by adding serial diluted test compound (final assay concentration of 1% DMSO). A decrease in absorption at 340 nm was monitored hourly for 4 h at 30° C. on a multi-mode microplate reader (BioTek). The reaction rate was calculated using the 3 to 4 h time frame. The reaction rate at each concentration of compound was converted to percent inhibition using controls (i.e., reaction with no test compound and reaction with a known inhibitor) and IC50 values were calculated by fitting a four-parameter sigmoidal curve to the data using Prism (GraphPad software).

[4] = target: C-Raf kinase (SEQ. ID NO: 3) (Homo sapiens (Human), UniProt P04049, Y340D/Y341D); test: Biochemical Assay for C-Raf (2); details: Table J, biochemical assay (2); read-out: CRAF (2)
Chain of C-Raf kinase (SEQ. ID NO: 3) (P04049 307-648 Y340D/Y341D): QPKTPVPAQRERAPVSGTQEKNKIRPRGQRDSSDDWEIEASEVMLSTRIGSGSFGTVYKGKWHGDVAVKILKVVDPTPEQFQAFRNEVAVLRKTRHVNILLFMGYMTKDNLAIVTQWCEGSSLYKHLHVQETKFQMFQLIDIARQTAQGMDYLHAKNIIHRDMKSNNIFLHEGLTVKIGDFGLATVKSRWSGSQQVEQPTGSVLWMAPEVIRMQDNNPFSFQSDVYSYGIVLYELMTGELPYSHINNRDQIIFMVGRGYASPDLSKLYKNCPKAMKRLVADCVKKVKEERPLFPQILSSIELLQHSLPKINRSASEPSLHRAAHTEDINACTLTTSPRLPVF
Description: Biochemical Assay for C-Raf (2)
as §1, with “of C-Raf” for “of B-Raf”, “NO: 3)” for “NO: 2)”, “using 3.84” for “using 2”, “nM C-Raf (Eurofins),” for “nM B-Raf (Sigma),”

Chain of B-Raf (V600E) (SEQ. ID NO: 4) kinase (P15056 416-766 V600E): as the sequence (P15056 416-766) above, with V185E counted along it

IC50 [1] [nM] | IC50 [2] [nM] | IC50 [3] [nM] | IC50 [4] [nM] | Compound
≤ 100 | ≤ 100 | 1000 to 10000 | ≤ 100 | CNC(=O)c1cc(-c2cncc(-c3cc(NC(=O)c4ccnc(C(C)(F)F)c4)ccc3C)c2)ncn1 [Example 439]
≤ 100 | ≤ 100 | 1000 to 10000 | ≤ 100 | CNC(=O)c1cc(-c2cncc(-c3cc(NC(=O)c4ccnc(C(C)(F)F)c4)ccc3C)c2)ccn1 [Example 440]
≤ 100 | ≤ 100 | 500 to 1000 | ≤ 100 | CNC(=O)c1cc(-c2cc(-c3cc(NC(=O)c4ccnc(C(C)(F)F)c4)ccc3C)ccn2)ccn1 [Example 441]
≤ 100 | ≤ 100 | 1000 to 10000 | ≤ 100 | CNC(=O)c1cc(-c2cncc(-c3cc(NC(=O)c4ccnc(C(C)(C)C#N)c4)ccc3C)c2)ccn1 [Example 442]
≤ 100 | ≤ 100 | 500 to 1000 | ≤ 100 | CNC(=O)c1cc(-c2cc(-c3cc(NC(=O)c4ccnc(C(C)C)c4)ccc3C)ccn2)ccn1 [Example 443]
≤ 100 | 100 to 500 | 1000 to 10000 | ≤ 100 | CNC(=O)c1cc(-c2cc(-c3cc(NC(=O)c4ccnc(C(C)(C)F)c4)cnc3C)ccn2)ccn1 [Example 444]
≤ 100 | ≤ 100 | 500 to 1000 | ≤ 100 | CNC(=O)c1cc(-c2cncc(-c3cc(NC(=O)c4ccnc(C(C)C)c4)ccc3C)c2)ccn1 [Example 445]
≤ 100 | ≤ 100 | 1000 to 10000 | ≤ 100 | CNC(=O)c1cc(-c2cncc(-c3cc(NC(=O)c4ccnc(C(C)C)c4)ccc3C)c2)ncn1 [Example 446]
100 to 500 | 100 to 500 | 1000 to 10000 | ≤ 100 | Cc1ccc(NC(=O)c2ccnc(C(C)(C)F)c2)cc1-c1ccnc(-c2ccnc(C#N)c2)c1 [Example 447]
≤ 100 | 100 to 500 | 1000 to 10000 | ≤ 100 | Cc1ccc(NC(=O)c2ccnc(C(C)(C)F)c2)cc1-c1ccnc(-c2ccnc(C(=O)NCCO)c2)c1 [Example 448]
≤ 100 | 100 to 500 | 1000 to 10000 | ≤ 100 | CNC(=O)c1cc(-c2cc(-c3cc(NC(=O)c4ccnc(C(C)(C)F)c4)ccc3C)cc(OCCO)n2)ccn1 [Example 449]
≤ 100 | 100 to 500 | 1000 to 10000 | 100 to 500 | Cc1ccc(NC(=O)c2ccnc(C(C)(C)F)c2)cc1-c1ccnc(-c2ccnc(C(=O)NC3CN(C)C3)c2)c1 [Example 450]
≤ 100 | ≤ 100 | 1000 to 10000 | ≤ 100 | Cc1ccc(NC(=O)c2ccnc(C(C)(C)F)c2)cc1-c1ccnc(-c2ccnc(C(=O)NCC#N)c2)c1 [Example 451]
≤ 100 | ≤ 100 | 1000 to 10000 | ≤ 100 | CNC(=N)c1cc(-c2cc(-c3cc(NC(=O)c4ccnc(C(C)(C)F)c4)ccc3C)ccn2)ccn1 [Example 452]
≤ 100 | ≤ 100 | 1000 to 10000 | ≤ 100 | Cc1ccc(NC(=O)c2ccnc(C(C)(C)F)c2)cc1-c1ccnc(-c2ccnc(C(=O)NCCN(C)C)c2)c1 [Example 453]
≤ 100 | ≤ 100 | 500 to 1000 | ≤ 100 | Cc1ncc(NC(=O)c2ccnc(C(C)(C)F)c2)cc1-c1ccnc(-c2ccnc(NC(=O)C3CC3)c2)c1 [Example 454]
≤ 100 | ≤ 100 | 100 to 500 | ≤ 100 | Cc1ccc(NC(=O)c2ccnc(C(C)(C)F)c2)cc1-c1ccnc(-c2ccnc(NC(=O)C3CC3)c2)c1 [Example 455]
≤ 100 | ≤ 100 | 100 to 500 | ≤ 100 | Cc1ccc(NC(=O)c2ccnc(C(C)(C)C#N)c2)cc1-c1ccnc(-c2ccnc(NC(=O)C3CC3)c2)c1 [Example 456]
≤ 100 | ≤ 100 | 100 to 500 | ≤ 100 | Cc1ccc(NC(=O)c2ccnc(C3(C#N)CC3)c2)cc1-c1ccnc(-c2ccnc(NC(=O)C3CC3)c2)c1 [Example 457]
≤ 100 | ≤ 100 | 100 to 500 | ≤ 100 | Cc1ccc(NC(=O)c2ccnc(C3CC3)c2)cc1-c1ccnc(-c2ccnc(NC(=O)C3CC3)c2)c1 [Example 458]
≤ 100 | ≤ 100 | 100 to 500 | ≤ 100 | Cc1ccc(NC(=O)c2ccnc(C(C)(F)F)c2)cc1-c1ccnc(-c2ccnc(NC(=O)C3CC3)c2)c1 [Example 459]
≤ 100 | ≤ 100 | 500 to 1000 | ≤ 100 | CNC(=O)c1cc(-c2cc(-c3cc(NC(=O)c4ccnc(C5CC5)c4)ccc3C)ccn2)ccn1 [Example 460]
≤ 100 | ≤ 100 | 100 to 500 | ≤ 100 | Cc1ncc(NC(=O)c2ccnc(C3(C#N)CC3)c2)cc1-c1ccnc(-c2ccnc(NC(=O)C3CC3)c2)c1 [Example 461]
100 to 500 | 100 to 500 | 1000 to 10000 | ≤ 100 | CNC(=O)c1cc(-c2cc(-c3cc(NC(=O)c4ccnc(C5CC5)c4)cnc3C)ccn2)ccn1 [Example 462]
≤ 100 | 100 to 500 | 1000 to 10000 | ≤ 100 | CNC(=O)c1cc(-c2cc(-c3cc(NC(=O)c4ccnc(C(C)(F)F)c4)cnc3C)ccn2)ccn1 [Example 463]
≤ 100 | 100 to 500 | 100 to 500 | ≤ 100 | CNC(=O)c1cc(-c2cc(-c3cc(NC(=O)c4ccnc(C5(C#N)CC5)c4)cnc3C)ccn2)ccn1 [Example 464]
≤ 100 | 100 to 500 | 1000 to 10000 | ≤ 100 | CNC(=O)c1cc(-c2cc(-c3cc(NC(=O)c4ccnc(C(C)C)c4)cnc3C)ccn2)ccn1 [Example 465]
